This is an account of results in article PMC6151961 (Journal of Enzyme Inhibition and Medicinal Chemistry, 2018).

Experiment [1] concerns the target T1, CA IX (Homo sapiens, UniProt Q16790). The experiment is described as follows: biochemical. Particulars: for Ki: read-out: pKi (exp.) (converted).
The target in experiment [2] is T1, CA IX. Particulars: read-out: Ki, cited from earlier work.
Setting [3] is: library compounds with IDs A… and B…, from observed Ki (nM).
The mark [4] stands for this setting: library compounds with IDs A… and B…, observed Ki, ref ChEMBL, BindingDB.
Setting [5] is: experimental value from the library Ki (IDs A…, B…), values equal log10 of Ki in nM.
Where [6] appears, read: observed Ki of library compounds (IDs A…, B…), ref ChEMBL and BindingDB.
The mark [7] stands for this setting: experimental value used for the QSPR model, library compounds (IDs A…, B…), equals log10 of Ki in nM.

Like-named read-outs stand apart in the source and are kept apart here.

Turning to `COc1cccc(/C=C\C(=O)C[C@@H]2O[C@@H](COC(C)=O)[C@@H](OC(C)=O)[C@@H](OC(C)=O)[C@H]2OC(C)=O)c1` [B0574], the Ki is 92.9 nM at CA IX [1] (setting [3]) and 93 nM on CA IX [2] (setting [4]). For the molecule `CN1N[C@@H](S(N)(=O)=O)S[C@H]1NC(=O)CCSSCCC(=O)/N=c1\sc(S(N)(=O)=O)nn1C` [A0620], the Ki on CA IX [1] (setting [5]) is 9.29 nM; at CA IX [2] (setting [6]), 9.3 nM. Regarding `NS(=O)(=O)c1ccc(-c2cn([C@H]3O[C@H](CO)[C@@H](O[C@@H]4O[C@H](CO)[C@@H](O)[C@H](O)[C@@H]4O)[C@H](O)[C@@H]3O)nn2)cc1` [B0632], the Ki on CA IX [1] and on CA IX [2] was 130 nM in each case. For the molecule `NS(=O)(=O)Nc1ccc(NC(=O)Nc2ccc(Cl)cc2)cc1` [A0149], the Ki at CA IX [1] (setting [7]) and on CA IX [2] (setting [6]) was 3 nM each time. `COC(=O)[C@@H]1O[C@H](S(N)(=O)=O)[C@@H](OC(C)=O)[C@H](OC(C)=O)[C@@H]1OC(C)=O` [B0808]: the Ki on CA IX [1] (setting [7]) and on CA IX [2] (setting [6]) was 4150 nM throughout. On to `NOS(=O)(=O)N[C@H]1C=C[C@H](O)[C@@H](CO)O1` [A1502], for which the values for the Ki at CA IX [1] (setting [5]) and on CA IX [2] (setting [6]) were 84.9 nM and 85 nM, respectively.

Regarding `C[C@@H](Sc1nc(-c2ccc(Cl)c(F)c2)c(C#N)c(=O)[nH]1)C(=O)Nc1ccc(S(N)(=O)=O)cc1` [A1157], the Ki on CA IX [1] (setting [5]) and on CA IX [2] (setting [6]) was 37 nM each time. For `NS(=O)(=O)c1nnc(NC(=O)[C@]23C[C@H]4C[C@H](C[C@H](C4)C2)C3)s1` [A0389], the Ki at CA IX [1] and at CA IX [2] was 6.4 nM throughout. Take `C/C(=N/Nc1ccc(S(N)(=O)=O)cc1)c1cc2cc(Br)ccc2oc1=O` [B0309]: the Ki on CA IX [1] and at CA IX [2] was 24 nM in each case. Take `NS(=O)(=O)c1ccc(-n2cc(/C=N/Nc3nc(-c4cc5cc(Cl)ccc5oc4=O)cs3)c(-c3ccc(F)cc3)n2)cc1` [B0019]: the Ki on CA IX [1] (setting [5]) and at CA IX [2] (setting [6]) was 2.5 nM throughout. Regarding `NS(=O)(=O)c1ccc(C(=O)NNC(=O)Nc2ccc([C@]34C[C@H]5C[C@H](C[C@H](C5)C3)C4)cc2)cc1` [A0952], the Ki at CA IX [1] and on CA IX [2] was 24 nM in each case. `NS(=O)(=O)c1ccc(-n2nnc(CS[C@H]3O[C@H](CO)[C@@H](O)[C@@H](O)[C@H]3O)c2I)cc1` [B0123]: the Ki on CA IX [1] (setting [7]) and at CA IX [2] (setting [6]) was 6.5 nM in each case. As to `CC(=O)O[C@@H]1O[C@@H](COS(N)(=O)=O)[C@H](OC(C)=O)[C@@H](OC(C)=O)[C@H]1OC(C)=O` [B0512], the Ki on CA IX [1] (setting [7]) was 72.9 nM; on CA IX [2] (setting [6]) it was 73 nM. On to `O=C(N/N=C\c1cccc(Br)c1)Nc1nnc(S)s1` [B0891], for which the Ki at CA IX [1] (setting [3]) and on CA IX [2] (setting [4]) was 10100 nM in each case. As to `NS(=O)(=O)c1ccc(-n2cc(CO[C@H]3O[C@@H](CO)[C@H](O)[C@H](O)[C@@H]3O)nn2)cc1` [B0594], the Ki at CA IX [1] and on CA IX [2] was 101 nM throughout. Regarding `COC(=O)C(=O)[C@H]1C(=O)Nc2ccccc21` [B0865], the Ki at CA IX [1] (setting [7]) and at CA IX [2] (setting [6]) was 8020 nM each time.

In the case of `COc1cc(/C=C\C(=O)OCCCCO[N+](=O)[O-])ccc1OC(=O)c1cccc(S(=O)(=O)Nc2nnc(S(N)(=O)=O)s2)c1` [B0659], the Ki on CA IX [1] and at CA IX [2] was 177 nM each time. As to `NOS(=O)(=O)N[C@H]1C=C[C@H](O)CO1` [A1544], the Ki on CA IX [1] and at CA IX [2] was 91 nM in each case. On to `Oc1cc(O)c2c(c1)O[C@@H](c1ccc(O)c(O)c1)[C@H](O)C2` [B0819], for which the Ki at CA IX [1] (setting [3]) is 5040 nM; at CA IX [2] (setting [4]), 5030 nM. Regarding `NS(=O)(=O)OC[C@H]1O[C@H](O)[C@H](O)[C@@H](O)[C@H]1O` [A1346], the Ki at CA IX [1] (setting [5]) was 61.9 nM; on CA IX [2] (setting [6]), 62 nM.

Turning to `NS(=O)(=O)c1ccc(C(=O)OCc2cn([C@@H]3O[C@H](CO)[C@@H](O)[C@@H](O)[C@@H]3O)nn2)cc1` [B0491], the Ki at CA IX [1] and on CA IX [2] was 65 nM each time. With `NS(=O)(=O)c1ccc(N[C@H]2SC[C@@H](c3ccc(Cl)cc3Cl)N2C2CCCCC2)cc1` [B0713], the Ki at CA IX [1] (setting [7]) and at CA IX [2] (setting [6]) was 342 nM in each case.

Turning to `CC1(C)CC(=O)C2=C(C1)N(c1ccc(S(N)(=O)=O)cc1)C1=C(C(=O)CC(C)(C)C1)C2c1cccc([N+](=O)[O-])c1` [A1986], on CA IX [1] (setting [3]), the “log10 of Ki in nM” value is given as 2.623. On to `CC(=O)OC[C@H]1O[C@@H](SCc2nnn(-c3ccc(S(N)(=O)=O)cc3)c2C#CCO)[C@H](OC(C)=O)[C@@H](OC(C)=O)[C@@H]1OC(C)=O` [A1422], for which the “log10 of Ki in nM” value on CA IX [1] (setting [7]) was found to be 1.857. For `CCCCC(=O)OC[C@H]1O[C@@H](n2cc(-c3ccc(S(N)(=O)=O)cc3)nn2)[C@H](OC(=O)CCCC)[C@@H](OC(=O)CCCC)[C@@H]1OC(=O)CCCC` [A2148], on CA IX [1] (setting [7]), the “log10 of Ki in nM” value turned out to be 2.978. Take `NS(=O)(=O)c1cnccc1-n1ccc(=O)cc1` [A0836]: the “log10 of Ki in nM” value at CA IX [1] (setting [5]) was 1.262. Take `NS(=O)(=O)c1nnc(NS(=O)(=O)c2ccc(NC(=O)CCC(=O)O)cc2)s1` [A0151]: at CA IX [1] (setting [5]), the “log10 of Ki in nM” value was 0.477.

With `COc1ccc2c(=O)n(-c3ccc(S(N)(=O)=O)cc3)c(S)nc2c1` [B0440], on CA IX [1], the “log10 of Ki in nM” value came out at 1.653. As to `O=C(Cc1ccccc1Br)Oc1ccc2c(c1)OS(=O)(=O)C=C2` [A2451], the Ki at CA IX [1] (setting [7]) was 10000 nM.

On to `Cc1ccc(-c2nn(-c3ccc(S(N)(=O)=O)cc3)cc2-c2nc3ccccc3[nH]2)cc1` [A1267], for which the “log10 of Ki in nM” value on CA IX [1] (setting [5]) was 1.693.

On to `O=C1c2ccccc2S(=O)(=O)N1Cc1cccc([N+](=O)[O-])c1` [A0700], for which the “log10 of Ki in nM” value on CA IX [1] (setting [5]) was 1.041. The same measure, in the same setting: in the case of `COc1ccc2c(c1)/C(=N/c1ccc(C(=O)Nc3ccc(S(N)(=O)=O)cc3)cc1)C(=O)N2` [A1756, reference compound] it was 2.243. `NS(=O)(=O)c1ccc(/N=c2\scc(-c3ccc(Br)cc3)n2C2CCCCC2)cc1` [A1905]: at CA IX [1] (setting [3]), the “log10 of Ki in nM” value is on record as 2.442. In the case of `Oc1ccccc1/C=N/CCCC/N=C/c1ccccc1O` [A2462], at CA IX [1] (setting [7]), the “log10 of Ki in nM” value amounted to 4.021.

Regarding `Cc1ccc(-c2cnc(C3CC3)o2)cc1S(N)(=O)=O` [B0710], at CA IX [1] (setting [3]), the “log10 of Ki in nM” value is on record as 2.502. For the molecule `CC(=O)N1C(=O)/C(=N\n2cnc3c(c(-c4ccc(Br)cc4)cn3-c3ccc(S(N)(=O)=O)cc3)c2=N)c2ccccc21` [B0037], the “log10 of Ki in nM” value on CA IX [1] (setting [7]) amounted to 0.491.

In the case of `NS(=O)(=O)c1ccc(C(=O)NCCc2ccc(O)c(O)c2)cc1` [A0813], the “log10 of Ki in nM” value on CA IX [1] (setting [5]) is 1.230.

Take `CCOC(=O)NC(=S)N(CC(=O)c1ccccc1)c1ccc(S(N)(=O)=O)cc1` [A0977]: at CA IX [1] (setting [5]), the “log10 of Ki in nM” value stood at 1.398. As for `COc1cccc(C(=O)CN2C(=O)C=C(C)OS2(=O)=O)c1` [A1737], the “log10 of Ki in nM” value on CA IX [1] (setting [5]) was found to be 2.207. As for `NS(=O)(=O)c1ccc(-n2cc(-c3ccc(Br)cc3)c3c2ncn2nnnc32)cc1` [B0028], on CA IX [1] (setting [3]), the “log10 of Ki in nM” value is given as 0.447.

`Cc1c(C(=O)NCCN(C)C)cc(-c2ccc(-c3ccccc3)cc2)n1-c1ccc(S(N)(=O)=O)cc1` [A1493]: the “log10 of Ki in nM” value on CA IX [1] (setting [7]) is 1.919. Regarding `O=c1ccc2ccc(OCc3cn(-c4ccc(C(F)(F)F)cc4)nn3)cc2o1` [A0920], the “log10 of Ki in nM” value on CA IX [1] (setting [5]) was found to be 1.362.

On to `COc1ccc2c(c1)/C(=N\c1ccc(NC(=O)Nc3ccc(S(N)(=O)=O)cc3)cc1)C(=O)N2` [B0174], for which, at CA IX [1] (setting [3]), the “log10 of Ki in nM” value turned out to be 0.929. The same measure, in the same setting: the result for `NC(=S)NNC(=O)c1ccncc1` [A2157] reads 2.988; that for `C=CCOc1cc(=S)oc2ccccc12` [A2239], 3.483.

`Nc1c(Br)cc(S(N)(=O)=O)cc1I` [A1512]: the “log10 of Ki in nM” value on CA IX [1] (setting [7]) is on record as 1.934.
